Laboratory results reported in US10369185B2, “Methods and compositions for enhancement of ability to concentrate” (KYOWA HAKKO BIO CO., LTD., priority 2014, dated 2019).
“Also recorded” adds a separate entry of the source. Peptide text beside a SMILES is read from it.

What was measured:
male runners [1] = experiment: Dynavision D2 MODE A reaction test (hits and time per hit in 60 s); type: in vivo, human; parameters: Mode A Avg Δ (average time per hit), group mean: unit not given here; conditions: for Mode A Avg Δ (average time per hit), group mean / Mode A Hits Δ, group mean: Post-Pre
Procedure: The testing protocol is depicted in FIG. 1. Data collection occurred on four separate occasions. Each session required participants to perform a 60-min run at 75% of their previously measured VO2max. Following this run, all participants performed a run at 90% of their VO2max until volitional exhaustion. All participants performed their first trial (DHY) without any rehydration. During this session the total weight lost during the trial was determined. The fluid loss that occurred during this session was then used to determine the participant's swear rate (L·hr^−1). To continue in the study, participant's sweat rate was or exceeded 1.3 L·hr^−1. During the next three trails participants were provided 250 ml of fluid every 15 minutes in equal amounts. During one of the trials participants consumed only a flavored sports drink (ELECT only), while during the other trials participants consumed the alanine-glutamine supplement (Sustamine™) mixed in the same flavored sports drink at either a low (LD: 300 mg per 500 ml) or high (HD: 1 g per 500 ml) dose. Measurement of upper body reaction time was performed on the Dynavision D2 Visuomotor Training Device (D2; Dynavision International LLC, West Chester, Ohio). The D2 is a light training reaction device, developed to train sensory motor integration through the visual system. It consists of a board (4 foot×4 foot) that can be raised or lowered relative to the height of the operator. It contains 64 target buttons arranged into five concentric circles surrounding a center screen that can be illuminated to serve as a stimulus for the participant. Participants were required to assume a comfortable athletic stance and stand at a distance from the board where they could easily reach all of the lights. The board height was adjusted so the LCD screen was located just below eye level. A total of three different reaction tests were conducted. Participants were instructed to fixate their gaze on the LCD screen in the middle of the board and to keep their focus there for the entirety of the experiment. The second assessment (MODE A) measured the participant's ability to react to a stimulus as it changed positions on the board. An initial stimulus will present on the D2 in a 6 random location. The stimulus remained lit until it was struck by the participant. The stimulus then appeared at another random location. The participant was instructed to identify and strike as many stimuli as possible within 60 s. The number of hits and the average time per hits were recorded for each participant. Additionally, to make inferences on true effects of the different trials on reaction performance, an analysis based on the magnitude of differences, calculated from 90% confidence intervals, as previously described by Batterham and Hopkins (2005), was used in this study. Differences in Post-Pre performance (Δresponse) between trials were analyzed via a published spreadsheet (Hopkins 2007), with the smallest non-trivial change set at 20% of the grand standard deviation (Batterham and Hopkins 2005). All data are expressed as a mean effect±SD, with percent chances of a beneficial, trivial or negative outcome. Qualitative inferences, based on quantitative chances were assessed as: <1% almost certainly not, 1-5% very unlikely, 5-25% unlikely, 25-75% possibly, 75-95% likely, 95-99% very likely and >99% almost certainly (Hopkins 2002).

male runners [2] = experiment: Run at 90% VO2max until volitional exhaustion; type: in vivo, human; conditions: LD and HD compared to DHY
Procedure: The testing protocol is depicted in FIG. 1. Data collection occurred on four separate occasions. Each session required participants to perform a 60-min run at 75% of their previously measured VO2max. Following this run, all participants performed a run at 90% of their VO2max until volitional exhaustion. All participants performed their first trial (DHY) without any rehydration. During this session the total weight lost during the trial was determined. The fluid loss that occurred during this session was then used to determine the participant's swear rate (L·hr^−1). To continue in the study, participant's sweat rate was or exceeded 1.3 L·hr^−1. During the next three trails participants were provided 250 ml of fluid every 15 minutes in equal amounts. During one of the trials participants consumed only a flavored sports drink (ELECT only), while during the other trials participants consumed the alanine-glutamine supplement (Sustamine™) mixed in the same flavored sports drink at either a low (LD: 300 mg per 500 ml) or high (HD: 1 g per 500 ml) dose.

[3] = alanylglutamine compared to glutamine; cited from earlier work

SMILES: C[C@H](N)C(=O)N[C@@H](CCC(N)=O)C(=O)O [L-Alanyl-L-Glutamine] (H-Ala-Gln-OH)
- Mode A Avg Δ, Interpretation (male runners [1]; Dehydration vs High Dose): Possibly
- Mode A Avg Δ, Mean Difference (male runners [1]; Dehydration vs High Dose): 0.025
- Mode A Avg Δ, Percent Negative (male runners [1]; Dehydration vs High Dose): 2.83%
- Mode A Avg Δ, Percent Positive (male runners [1]; Dehydration vs High Dose): 69.46%
- Mode A Avg Δ, Percent Trivial (male runners [1]; Dehydration vs High Dose): 27.71%
- Mode A Hits Δ, Interpretation (male runners [1]; Dehydration vs High Dose): possible negative effect; also recorded: Possibly
- Mode A Hits Δ, Mean Difference (male runners [1]; Dehydration vs High Dose): −2.9
- Mode A Hits Δ, Percent Negative (male runners [1]; Dehydration vs High Dose): 70.21%
- Mode A Hits Δ, Percent Positive (male runners [1]; Dehydration vs High Dose): 2.09%
- Mode A Hits Δ, Percent Trivial (male runners [1]; Dehydration vs High Dose): 27.70%
- Mode A Avg Δ, Interpretation (male runners [1]; Dehydration vs Low Dose): Possibly
- Mode A Avg Δ, Mean Difference (male runners [1]; Dehydration vs Low Dose): 0.02
- Mode A Avg Δ, Percent Negative (male runners [1]; Dehydration vs Low Dose): 2.61%
- Mode A Avg Δ, Percent Positive (male runners [1]; Dehydration vs Low Dose): 61.93%
- Mode A Avg Δ, Percent Trivial (male runners [1]; Dehydration vs Low Dose): 35.45%
- Mode A Hits Δ, Interpretation (male runners [1]; Dehydration vs Low Dose): possible negative effect; also recorded: Possibly
- Mode A Hits Δ, Mean Difference (male runners [1]; Dehydration vs Low Dose): −2.2
- Mode A Hits Δ, Percent Negative (male runners [1]; Dehydration vs Low Dose): 57.68%
- Mode A Hits Δ, Percent Positive (male runners [1]; Dehydration vs Low Dose): 3.88%
- Mode A Hits Δ, Percent Trivial (male runners [1]; Dehydration vs Low Dose): 38.43%
- Mode A Avg Δ, Interpretation (male runners [1]; Gatorade vs High Dose): Possibly
- Mode A Avg Δ, Mean Difference (male runners [1]; Gatorade vs High Dose): 0.023
- Mode A Avg Δ, Percent Negative (male runners [1]; Gatorade vs High Dose): 2.17%
- Mode A Avg Δ, Percent Positive (male runners [1]; Gatorade vs High Dose): 67.69%
- Mode A Avg Δ, Percent Trivial (male runners [1]; Gatorade vs High Dose): 30.14%
- Mode A Hits Δ, Interpretation (male runners [1]; Gatorade vs High Dose): possibly negative
- Mode A Hits Δ, Mean Difference (male runners [1]; Gatorade vs High Dose): 2.7
- Mode A Hits Δ, Percent Negative (male runners [1]; Gatorade vs High Dose): 65.88%
- Mode A Hits Δ, Percent Positive (male runners [1]; Gatorade vs High Dose): 2.87%
- Mode A Hits Δ, Percent Trivial (male runners [1]; Gatorade vs High Dose): 31.25%
- speed per hit, MODE A (male runners [1]; HD and LD compared to DHY and ELECT only): not statistically different
- improvements of successful hits, MODE A (male runners [1]; HD and LD compared to DHY and ELECT only, not statistically significant): 3-4 fold
- Mode A Avg Δ (average time per hit), group mean (male runners [1]; High Dose (1 g per 500 ml)): −0.028
- Mode A Hits Δ, group mean (male runners [1]; High Dose (1 g per 500 ml)): 3.67
- Mode A Avg Δ (average time per hit), group mean (male runners [1]; Low Dose (300 mg per 500 ml)): −0.023
- Mode A Hits Δ, group mean (male runners [1]; Low Dose (300 mg per 500 ml)): 2.92
- Mode A Avg Δ, Interpretation (male runners [1]; Low Dose vs Gatorade): Unclear
- Mode A Avg Δ, Mean Difference (male runners [1]; Low Dose vs Gatorade): −0.018
- Mode A Avg Δ, Percent Negative (male runners [1]; Low Dose vs Gatorade): 50.55%
- Mode A Avg Δ, Percent Positive (male runners [1]; Low Dose vs Gatorade): 44.41%
- Mode A Avg Δ, Percent Trivial (male runners [1]; Low Dose vs Gatorade): 5.04%
- Mode A Hits Δ, Interpretation (male runners [1]; Low Dose vs Gatorade): Unclear
- Mode A Hits Δ, Mean Difference (male runners [1]; Low Dose vs Gatorade): 1.9
- Mode A Hits Δ, Percent Negative (male runners [1]; Low Dose vs Gatorade): 42.26%
- Mode A Hits Δ, Percent Positive (male runners [1]; Low Dose vs Gatorade): 50.35%
- Mode A Hits Δ, Percent Trivial (male runners [1]; Low Dose vs Gatorade): 7.39%
- Mode A Avg Δ, Interpretation (male runners [1]; Low Dose vs High Dose): Very Likely
- Mode A Avg Δ, Mean Difference (male runners [1]; Low Dose vs High Dose): 0.005
- Mode A Avg Δ, Percent Negative (male runners [1]; Low Dose vs High Dose): 0.02%
- Mode A Avg Δ, Percent Positive (male runners [1]; Low Dose vs High Dose): 2.51%
- Mode A Avg Δ, Percent Trivial (male runners [1]; Low Dose vs High Dose): 97.47%
- Mode A Hits Δ, Interpretation (male runners [1]; Low Dose vs High Dose): Likely
- Mode A Hits Δ, Mean Difference (male runners [1]; Low Dose vs High Dose): −0.75
- Mode A Hits Δ, Percent Negative (male runners [1]; Low Dose vs High Dose): 9.11%
- Mode A Hits Δ, Percent Positive (male runners [1]; Low Dose vs High Dose): 0.11%
- Mode A Hits Δ, Percent Trivial (male runners [1]; Low Dose vs High Dose): 90.77%
- run times at 90% VO2max (time to exhaustion) (male runners [2]): significantly longer at LD and HD compared to DHY; also recorded: improved time to exhaustion compared to when subjects were dehydrated; also recorded: can enhance time to exhaustion
- solubility in aqueous solutions [3]: superior
- stability (heat stability) [3]: superior
